Reference: patent publication US4758586A, “Indolyl compounds and hyposensitivity use thereof” (USV Pharmaceutical Corp., priority 1986, dated 1988)

Assays:
[1] = tested on: leukotriene C4 -induced contraction of guinea pig peripheral strips; experiment: SRS-A antagonists (SALTI): leukotriene C4-induced contraction of guinea pig peripheral lung strips; details: Cavia porcellus; 0.2 μM leukotriene C4-induced contraction; read-out: SALTI, I50 μM
Method: Protocol for SRS-A (Slow-reacting Substance of Anaphylaxis Antagonists (SALTI)
Peripheral strips of guinea pig lungs are prepared and hung in tissue baths (Metro #ME-5505, 10 ml) according to the published procedure (Pro. Nat'l. Acad. Sci., U.S.A. Volume 77, pp. 4354-4358, 1980). The strips are thoroughly rinsed in Assay Buffer and then connected with surgical silk thread to the support rods from the tissue baths. The rods are adjusted in the baths and the strips connected to the pressure transducers (Grass FT 103 or Gould UC-3). The tissue baths are aerated with 95% oxygen 5% carbon dioxide and maintained at 37° C. The Assay Buffer has been made as follows: For each liter of buffer the following are added to approximately 800 ml of water distilled in glass--6.87 g. NaCl, 0.4 g. KCl, […]. NaHCO3, 0.14 g. NaH2 PO4.H2 O, 0.21 g. MgSO4.7H2 O, and 2.0 g. D-glucose. Then a solution of 0.368 g. CaCl2.2H2 O in 100 ml glass-distilled water is slowly added to the buffer. Sufficient water is added to adjust the volume to one liter, and the solution is aerated with 95% oxygen--5% carbon dioxide. Usually 10 liters of buffer are used for an experiment with 4 tissues.
After the tissues have been repeatedly washed and allowed to equilibrate in the tissue bath, they are challenged with 1 μM histamine. After maximum contractions have been obtained, the tissues are washed, and allowed to relax back to baseline tension. This histamine challenge procedure is repeated at least 1 to 2 more times to obtain a repeatable control response. The average response to 1 μM histamine for each tissue is used to normalize all other challenges.
Responses of each tissue to a predetermined concentration of leukotriene are then obtained. Usually test compounds are examined initially at 30 μM on resting tension of the tissues without any added agonist or antagonist to determine if the compound has any possible intrinsic activity. The tissues are washed, and the test compound is added again. Leukotriene is added after the desired pre-incubation time. The intrinsic activity of the compounds, and their effect on leukotriene-induced contractions are then recorded.
The concentration required for 50% inhibition of 0.2 μM leukotriene C4 -induced contraction of guinea pig peripheral strips for representative compounds of the present invention is shown in Table 3.

[2] = tested on: Phospholipase C (PLC); experiment: In vitro assay for inhibitors of Phospholipase C (PLC) from rat platelets; format: biochemical; details: read-out: PLC, I50
Excerpt: A. Protocol For In Vitro Assay For Inhibitors Of Phospholipase C (PLC)
The PLC employed in this screen is obtained by aggregation of purified rat platelets in the presence of CaCl2 and ADP. In the enzyme assay phosphatidylinositol having ^3 H -labeled arachidonate residues at R2 is employed as substrate. PLC acts by cleaving the phosphate ester bond yielding diglyceride as follows: [drawing 18]
Following completion of the reaction, the assay medium is acidified and extracted with hexane which takes up unreacted substrate and diglyceride. The hexane extract is passed over a short silica gel column which retains 99% of the phosphatidylinositol. The ^3 H-labeled diglyceride is not retained […]. The diglyceride is conveniently quantitated by liquid scintillation spectrometry.
The compounds were tested at 300 u in a buffer containing 0.06 mM unlabeled phosphatidylcholine (PC), 20-30,000 cpm of (CPC), 150 mM NaCl, 5 mM CaCl2 and 50 mM tris(hydroxymethyl)methylaminopropanesulfonic acid buffer, adjusted to pH 9.0 with 1N NaOH. The temperature of the buffer was maintained at a temperature of 37° C. The reaction was initiated by addition of the enzyme and it was terminated 10 minutes later by addition of 1 ml of 1N HCl.
Following acidification, the samples were extracted with 2 ml of isopropyl alcohol and 2 ml of hexane, vortexed and allowed to stand until the phases separate. […] and some unreacted substrate were taken up in the isopropanol-saturated hexane. The hexane phase of the extraction mixture was transferred to a short silica gel column which retains unreacted phosphatidylinositol, but not the 3H-diglyceride. The column effluent was collected directly in scintillation vials. The columns were washed once with additional 2 ml of hexane. The radiolabelled diglycerides were quantitated by liquid scintillation.

`CCC(=CC=Cc1cn(Cc2ccccc2)c2ccccc12)C(=O)O` [Example 9, 5-(1-Benzylindol-3-yl)-2-Ethyl-2,4-Pentadienoic Acid] showed an IC50 [1] of 18 µM and an IC50 [2] of 37 µM.
